Test results taken from paper PMC8410836, “Rational design of hyperstable antibacterial peptides for food preservation” (NPJ Science of Food, 2021).
In brackets after ≈: the same amount, converted by molar mass. Where two headings read alike, the source gives them in different places. Where a SMILES comes first, the peptide text is derived from it. Bridges are numbered along the chain shown (N, C = ends).

Tests used:
[1] = system: Bacillus cereus ATCC11778; conditions: microdilution broth, MH broth, 5 × 10^5 CFU/mL, 37 °C, 5–6 h, resazurin
Procedure: (§1) Four Gram-positive bacteria: Listeria monocytogenes ATCC13932, Bacillus cereus ATCC11778, Staphylococcus aureus ATCC12900, and Micrococcus luteus ATCC4698 and three Gram-negative bacteria: Escherichia coli ATCC11775, Pectobacterium carotovorum MCC2112, and Salmonella typhimurium ATCC9844 were used in this study. These strains were stored at −80 °C in 25% (v/v) glycerol.
(§2) Antimicrobial assays against various bacterial cultures were done using the microdilution broth assay according to the Clinical and Laboratory Standards Institute (CLSI)[64] with some modifications. Mueller-Hinton broth was used to dilute the peptide stock and the bacterial inoculum. Inoculum was prepared from the mid-logarithmic phase culture. Each well of the microtiter plates received aliquots of 100 µL of the media containing different concentrations of peptide ranging from 0.3 to 300 µg/mL. The final concentration of bacteria in the wells was 5 × 10^5 Colony Forming Units (CFU) per mL. Ampicillin was used as positive control. For negative control, ultrapure water was used instead of peptides. Microtiter plates were incubated at 37 °C for 5–6 h with continuous shaking at 130 rpm (M. luteus cells were incubated for 7–8 h). The incubation time used for these assays was initially optimized using a 20-h incubation period. […] MIC assays were performed as three independent experiments in triplicates.

[2] = system: Escherichia coli ATCC11775; conditions: microdilution broth, MH broth, 5 × 10^5 CFU/mL, 37 °C, 5–6 h, resazurin
Procedure: as §1, §2

[3] = system: Listeria monocytogenes ATCC13932; conditions: microdilution broth, MH broth, 5 × 10^5 CFU/mL, 37 °C, 5–6 h, resazurin
Procedure: as §1, §2

[4] = system: Micrococcus luteus ATCC4698; conditions: microdilution broth (CLSI, modified), Mueller-Hinton broth, 5 × 10^5 CFU/mL, 37 °C, 7–8 h, resazurin colour change, three independent experiments in triplicates
Procedure: as §1, §2

[5] = system: Pectobacterium carotovorum MCC2112; conditions: microdilution broth, MH broth, 5 × 10^5 CFU/mL, 37 °C, 5–6 h, resazurin
Procedure: as §1, §2

[6] = system: Salmonella typhimurium ATCC9844; conditions: microdilution broth, MH broth, 5 × 10^5 CFU/mL, 37 °C, 5–6 h, resazurin
Procedure: as §1, §2

[7] = system: Staphylococcus aureus ATCC12900; conditions: microdilution broth, MH broth, 5 × 10^5 CFU/mL, 37 °C, 5–6 h, resazurin
Procedure: as §1, §2

[8] = system: B. cereus spores; type: cell-based, Bacillus cereus; conditions: spore suspension, resazurin; repeated at least twice
Procedure: B. cereus spores were used to test the effect of peptides on spore germination. Spores were prepared by inoculating 3 mL MH media with B. cereus cells and incubating at 30 °C at 180 rpm for 12 h. 2.5 mL of the culture was inoculated into a 250 mL MH media and incubated at 30 °C for 72 h. Furthermore, culture was temperature-treated at 80 °C for 30 min to eliminate the vegetative cells. Spore suspension was stored at 4 °C until further use. Two microliters of spore suspension was used to test the effect of HSEP3 and Nisin on spore germination using resazurin. All experiments were repeated at least twice.

[9] = system: B. cereus
Procedure: as §2
To determine the stability of HSEP3 at higher temperatures, 20 μL of HSEP3 (4 mg/mL) and 20 μL of Nisin in a 0.5 mL tube were autoclaved (for moist heat) at 121 °C for 20 min or heated at 95 °C for 30 min (for dry heat) and cooled to room temperature. Mixture was then used to test the antibacterial activity as previously described. Experiments were repeated in LB media to study the effect of complex media on antibacterial activity. All the experiments were repeated at least two times.

[10] = system: human red blood cells (hRBCs); conditions: peptide 0 to 200 μg/mL, 4% hRBCs in PBS, 1 h, 37 °C, absorbance 414 nm, Triton X-100 = 100%; three biological replicates
Procedure: The hemolytic activity of the peptide was evaluated using human red blood cells (hRBCs). Erythrocytes were separated from 1 mL of blood by centrifugation at 1500 rpm for 10 min. Collected hRBCs were washed three times with PBS, diluted to 4% (v/v) in PBS. Hundred microliters of the hRBCs having peptides ranging from 4 to 200 µg/mL as added into 96-well microtiter plate. The plates were incubated for 1 h at 37 °C without agitation and centrifuged at 1500 rpm for 5 min. Aliquots (100 μL) of the supernatant were transferred to 96-well plates and absorbance was measured at 414 nm. PBS and 1% Triton X-100 were used as control for 0% and 100% hemolysis, respectively. Percentage of hemolysis was calculated as (AT − AC)/(AX − AC) × 100; where AT is the experimental absorbance of treated supernatants, AC is the control absorbance of PBS-treated cell supernatant, and AX is the absorbance of 0.1% (v/v) Triton X-100 lysed cells. Data presented are averages and standard error from three biological replicate experiments.

[11] = molecular target: T1, bovine trypsin (Bos taurus, UniProt P00760); experiment: biochemical; conditions: SEM
T1 sequence (P00760 24-246): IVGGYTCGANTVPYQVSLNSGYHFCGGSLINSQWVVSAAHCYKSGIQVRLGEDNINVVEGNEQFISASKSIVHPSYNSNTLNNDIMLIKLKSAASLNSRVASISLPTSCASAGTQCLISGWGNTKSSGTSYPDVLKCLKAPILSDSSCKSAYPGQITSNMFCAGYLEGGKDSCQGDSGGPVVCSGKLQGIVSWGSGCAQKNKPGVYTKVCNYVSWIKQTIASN
Procedure: (§3) The amidase activity of trypsin and its inhibition was assayed using the chromogenic substrate BAPNA at pH 8.2 in 0.05 M Tris-HCl containing 0.02 M CaCl2 at 37 °C. The assay reaction contained 50 µL of trypsin solution (40–50 μg of trypsin in 1 mM HCl), 50 µL of water, and 125 µL of the substrate. The reaction was carried out at 37 °C for 10 min and stopped by addition of 0.25 mL of 30% acetic acid. […] The trypsin solution was incubated with an aliquot of inhibitor for 10 min at 37 °C and reaction started by the addition of 125 µL substrate and incubated at 37 °C for 10 min. […] The effect of varying substrate concentration (BAPNA) on bovine trypsin in the presence of fixed concentrations of peptides was studied. The inhibition constants (Ki) were evaluated using the double reciprocal and Dixon plot of the data[65],[66]. Data presented are averages and standard error calculated from two biological replicate experiments.

[12] = system: B. cereus; experiment: Propidium iodide (PI) uptake assay; type: cell-based, Bacillus cereus; conditions: peptides at 2X MIC, Fig. 4e; three biological replicates
Procedure: B. cereus and M. luteus were grown in MH broth to logarithmic phase of growth and then diluted to OD600 ~ 0.25. Serial dilutions of the antimicrobial peptides (final concentrations, 0–100 μg/mL) were added to the wells of a black-walled microplate. Hundred microliters of the bacterial suspension containing PI (final concentration, 10 μM) was added to the wells. The emitted fluorescence was measured at excitation and emission wavelengths of 585 and 620 nm, respectively, for 2 h using a multimode plate reader (Varioskan Flash, Thermo Scientific, USA). The percentage of membrane permeabilization was calculated as the percent of fluorescent intensity of peptide-treated samples with respect to fluorescence intensity of PI-loaded, peptide untreated samples. PI uptake assays were performed as three independent experiments in triplicates.

[13] = molecular target: T1, bovine trypsin; conditions: BAPNA substrate, pH 8.2, 0.05 M Tris-HCl, 0.02 M CaCl2, 37 °C; double reciprocal and Dixon plot; mean and standard error of two biological replicates; listed as HSEP2-ΔK8
Procedure: as §3

## CC[C@H](C)[C@H](NC(=O)[C@@H](NC(=O)[C@H](CO)NC(=O)[C@@H](N)CCCNC(=N)N)C(C)C)C(=O)N[C@@H](Cc1ccccc1)C(=O)NCC(=O)N[C@H]1CSSC[C@@H](C(=O)N[C@@H](Cc2ccccc2)C(=O)N[C@H](C(=O)NCC(=O)N[C@@H](Cc2ccccc2)C(=O)N[C@@H](CCCCN)C(=O)O)C(C)C)NC(=O)[C@H]([C@@H](C)CC)NC(=O)[C@@H]2CCCN2C(=O)[C@@H]2CCCN2C(=O)[C@H]([C@@H](C)CC)NC(=O)[C@H](CO)NC(=O)[C@H](CCCCN)NC(=O)[C@H]([C@@H](C)O)NC1=O [HSEP3] (H-RSVIFGCTKSIPPICFVGFK-OH; disulfide 7-15)
[1]
  MIC Bacillus cereus: 12.5 µg/mL (≈ 5.69 µM)
[2]
  MIC Escherichia coli: 150 µg/mL (≈ 68.3 µM)
[3]
  MIC Listeria monocytogenes: 50 µg/mL (≈ 22.8 µM)
[4]
  MIC (µg/mL) M. luteus: 1.25 µg/mL (≈ 0.569 µM)
[5]
  MIC Pectobacterium carotovorum: 50 µg/mL (≈ 22.8 µM)
[6]
  MIC Salmonella typhimurium: 85 µg/mL (≈ 38.7 µM)
[7]
  MIC Staphylococcus aureus: 150 µg/mL (≈ 68.3 µM)
[8]
  Inhibition of B. cereus spore germination (MIC): 12.5 µg/mL
[9]; autoclaved at 121 °C for 20 min, LB media
  Effect of steam heat on antibacterial activity (in complex media), MIC: 50 µg/mL
[9]; autoclaved at 121 °C for 20 min, MH media
  Effect of steam heat on antibacterial activity (in MH media), MIC: 12.5 µg/mL
[9]; heated at 95 °C for 30 min
  Effect of dry heat on antibacterial activity, MIC: 12.5 µg/mL
[10]
  hemolytic activity: < 5%
[11]
  Ki: 200 nM

## CC[C@H](C)[C@H](NC(=O)[C@@H](NC(=O)[C@@H](N)CO)C(C)C)C(=O)N[C@@H](Cc1ccccc1)C(=O)NCC(=O)N[C@H]1CSSC[C@@H](C(=O)N[C@@H](Cc2ccccc2)C(=O)N[C@H](C(=O)NCC(=O)N[C@@H](Cc2ccccc2)C(=O)N[C@@H](CCCCN)C(=O)O)C(C)C)NC(=O)[C@H]([C@@H](C)CC)NC(=O)[C@@H]2CCCN2C(=O)[C@@H]2CCCN2C(=O)[C@H]([C@@H](C)CC)NC(=O)[C@H](CO)NC(=O)[C@H]([C@@H](C)O)NC1=O [HSEP2-∆K8] (H-SVIFGCTSIPPICFVGFK-OH; disulfide 6-13; N-terminus and C-terminus assumed)
[4]; listed as HSEP2-ΔK8
  MIC (µg/mL) M. luteus: did not show any antibacterial activity
[12]
  PI uptake fluorescence intensity of treated bacterial cells: minimal fluorescence intensity
[13]
  Ki (M) against bovine trypsin: failed to show any trypsin inhibition
